Source: patent US20250313553A1, “ANNULATED 2-AMINO-3-CYANO THIOPHENES AND DERIVATIVES FOR THE TREATMENT OF CANCER” (Boehringer Ingelheim Int'l GmbH Corp., priority 2021, published 2025)

Tests used:
SAS cells = test: SAS CTG proliferation assay (120 h); type: cell-based; conditions: HNSCC, wt amplified
Description: (§1) SAS cells (JCRB0260) are dispensed into 384-well plates, flat and clear bottom (Greiner, PNr. 781091) at a density of 300 cells per well in 60 μL DMEM:F12 (Gibco 31330-038)+10% Fetal Calf Serum (HyClone, PNr.: SH30084.03) and incubated at 37° C. in a CO2 incubator overnight. The next day, compounds (10 mM stock in DMSO) are added with the ECHO acoustic liquid handler system (Beckman Coulter), including DMSO controls. Plates are incubated for 120 h, and cell viability is measured using CellTiter-Glo luminescent cell viability reagent (Promega product code G7570). Viability (stated as percent of control) is defined as relative luminescence units RLU of each well divided by the RLU of cells in DMSO controls. IC50 values are determined from viability measurements by non-linear regression using a four-parameter model.

LOVO cells = test: LOVO CTG proliferation assay (120 h); type: cell-based; conditions: Homo sapiens, CRC, G13D
Description: as §1, with “LOVO cells (ATCC” for “SAS cells (JCRB0260)”, “LOVO cells (ATCC CCL-229) are dispensed” for “SAS cells (JCRB0260) are dispensed”, “density of 1000 cells per” for “density of 300 cells per”, “60 μL DMEM (Sigma D6429)+10% Fetal Calf” for “60 μL DMEM:F12 (Gibco 31330-038)+10% Fetal Calf”

KRAS (G12V) and SOS1 = biological target: T1, KRAS (G12V) and SOS1 (Homo sapiens, UniProt P01116, C118S/G12V); test: KRAS::SOS1 AlphaScreen binding assay, KRAS G12V
T1 construct: KRAS (G12V) 1-169, N-terminal 6His-tag for purification; 6His (N, cleaved yes); TEV cleavage site
Description: Low IC50 values in this assay setting are indicative of strong inhibition of protein-protein interaction between SOS1 and KRAS:
These assays measure the inhibitory effect of compounds on KRAS mutant protein-protein interactions using the Alpha Screen technology by Perkin Elmer.
For the chosen highest assay concentration of 100 μM, 150 nL of compound solution are transferred from a 10 mM DMSO compound stock solution. A series of eleven fivefold dilutions per compound are transferred to the assay plate, compound dilutions are tested in duplicates. DMSO are added as backfill to a total volume of 150 nL.
The assays run on a fully automated robotic system in a darkened room below 100 Lux. To 150 nl of compound dilution 10 μl of a mix including KRAS mutant protein, SOS1 (final assay concentrations see above) and GDP nucleotide (Sigma G7127; final assay concentration 10 μM) in assay buffer (1×PBS, 0.1% BSA, 0.05% Tween 20) are added into columns 1-24. After 30 minutes incubation time 5 μl of Alpha Screen bead mix in assay buffer are added into columns 1-23.
Plates are kept at room temperature in a darkened incubator. After an additional 60 minutes incubation time the signal is measured in a PerkinElmer Envision HTS Multilabel Reader using the AlphaScreen specs from PerkinElmer.
IC50 values are calculated and analyzed with Boehringer Ingelheim's MEGALAB IC50 application using a 4 parametric logistic model.

SK-CO-1 cells = test: SK-CO-1 CTG proliferation assay (120 h); type: cell-based; conditions: Homo sapiens, CRC, G12V
Description: as §1, with “SK-CO-1 cells (ATCC” for “SAS cells (JCRB0260)”, “SK-CO-1 cells (ATCC HTB-39) are dispensed” for “SAS cells (JCRB0260) are dispensed”, “density of 500 cells per” for “density of 300 cells per”, “60 μL EMEM (Sigma M5650)+10% Fetal Calf” for “60 μL DMEM:F12 (Gibco 31330-038)+10% Fetal Calf”

NCI-H358 cells = test: NCI-H358 CTG proliferation assay (120 h), assay 2; type: cell-based; conditions: Homo sapiens, 384-well, 200 cells per well
Description: NCI-H358 cells (ATCC No. CRL-5807) are dispensed into white bottom opaque 96 well plates (Perkin Elmer cat no. 5680) at a density of 2000 cells per well in 100 μL RPMI-1640 ATCC-Formulation (Gibco #A10491)+10% FCS (fetal calf serum) (assay 1) or into black 384-well plates, flat and clear bottom (Greiner, PNr. 781091) at a density of 200 cells per well in 60 μl RPMI-1640 ATCC-Formulation (Gibco #A10491)+10% FCS (fetal calf serum) (assay 2). […] Compounds (10 mM stock in DMSO) are added at logarithmic dose series using the HP Digital Dispenser D300 (Tecan) (assay 1) or the ECHO acoustic liquid handler system (Beckman Coulter) (assay 2), normalizing for added DMSO and including DMSO controls. For the T0 time point measurement, untreated cells are analyzed at the time of compound addition. Plates are incubated for 120 h, and cell viability is measured using CellTiter-Glo luminescent cell viability reagent (Promega product code G7570). Viability (stated as percent of control) is defined as relative luminescence units RLU of each well divided by the RLU of cells in DMSO controls. IC50 values are determined from viability measurements by non-linear regression using a four-parameter model.

[1] = Plasma protein binding assay (PPB), equilibrium dialysis; type: in vitro ADME; conditions: bovine, 10% FCS in PBS, read-out: PPB 10% FCS (% fu)
Description: Binding of test compounds to plasma was determined using equilibrium dialysis (ED) and quantitative mass spectrometry interfaced with liquid chromatography (LC-MS). In brief, ED was performed with dialysis devices consisting of two chambers separated by a semipermeable membrane with a molecular weight cut-off of 5-10 kg/mol. One chamber was filled with 10% FCS in PBS containing 1-10 μmol/L test compound and the other chamber was filled with phosphate-buffer saline (PBS) with or without dextran. The dialysis chamber was incubated for 3-5 hours at 37° C. After incubation, protein was precipitated from aliquots of each chamber and the concentration of test compound in the supernatant of the plasma-containing compartment (cserum) and of the buffer-containing compartment (cbuffer) was determined by LC-MS. The fraction of unbound test compound (not bound to plasma) (fu) was calculated according to the following equation: […]

T1 sequence (P01116 1-169 isoform P01116-2 G12V/C118S): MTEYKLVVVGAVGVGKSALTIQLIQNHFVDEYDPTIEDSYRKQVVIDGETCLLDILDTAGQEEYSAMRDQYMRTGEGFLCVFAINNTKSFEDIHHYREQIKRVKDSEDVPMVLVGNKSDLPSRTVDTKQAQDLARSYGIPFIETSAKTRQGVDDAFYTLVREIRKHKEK

Row | SMILES | IC50 (SAS cells) | IC50 (LOVO cells) | IC50 (KRAS (G12V) and SOS1) | IC50 (SK-CO-1 cells) | IC50 (NCI-H358 cells) | fraction unbound [1]
1 | C[C@H]1CN(C)CCN1c1cccc(-c2noc([C@@]3(C)CCCc4sc(N)c(C#N)c43)n2)n1 [Example V-1] | 8020 nM | 8470 nM | 52 nM | 4800 nM | 937 nM | 0.21
2 | COCCCN1CCCN(c2nccc(-c3noc([C@@]4(C)CCCc5sc(N)c(C#N)c54)n3)n2)[C@@H](C)C1 [Example V-2] |  |  | 6 nM |  |  | 
3 | C[C@H](Oc1cccc(-c2noc([C@@]3(C)CCCc4sc(N)c(C#N)c43)n2)n1)[C@@H]1CCCN1C [Example V-8] | 3100 nM | 1430 nM | 9 nM | 6650 nM | 230 nM | 0.51
4 | CC(C)N1CCCN(c2nccc(-c3noc([C@@]4(C)CCCc5sc(N)c(C#N)c54)n3)n2)[C@@H](C)C1 [Example V-9] |  |  |  |  | 1190 nM | 
5 | C[C@H](Oc1ccnc(-c2noc([C@@]3(C)CCCc4sc(N)c(C#N)c43)n2)n1)[C@@H]1CCCN1C [Example V-11] | 3330 nM | 193 nM |  | 737 nM | 244 nM | 0.61
6 | C[C@H]1CN(C)CCN1c1nccc(-c2cc([C@@]3(C)CCCc4sc(N)c(C#N)c43)on2)n1 [Example V-27] |  |  | 18 nM |  |  | 
